2 molecules from PMC11643494, “Structure–Activity Relationship Studies in a Series of 2-Aryloxy-N-(pyrimidin-5-yl)acetamide Inhibitors of SLACK Potassium Channels” (Molecules, 2024) can be followed below.

The assay has as its target T1, Mouse WT SLACK (Mus musculus, UniProt Q6ZPR4).
T1 construct: expressed in transfected cells; host or cells: CHO-K1
T1 sequence (Q6ZPR4 1-1224): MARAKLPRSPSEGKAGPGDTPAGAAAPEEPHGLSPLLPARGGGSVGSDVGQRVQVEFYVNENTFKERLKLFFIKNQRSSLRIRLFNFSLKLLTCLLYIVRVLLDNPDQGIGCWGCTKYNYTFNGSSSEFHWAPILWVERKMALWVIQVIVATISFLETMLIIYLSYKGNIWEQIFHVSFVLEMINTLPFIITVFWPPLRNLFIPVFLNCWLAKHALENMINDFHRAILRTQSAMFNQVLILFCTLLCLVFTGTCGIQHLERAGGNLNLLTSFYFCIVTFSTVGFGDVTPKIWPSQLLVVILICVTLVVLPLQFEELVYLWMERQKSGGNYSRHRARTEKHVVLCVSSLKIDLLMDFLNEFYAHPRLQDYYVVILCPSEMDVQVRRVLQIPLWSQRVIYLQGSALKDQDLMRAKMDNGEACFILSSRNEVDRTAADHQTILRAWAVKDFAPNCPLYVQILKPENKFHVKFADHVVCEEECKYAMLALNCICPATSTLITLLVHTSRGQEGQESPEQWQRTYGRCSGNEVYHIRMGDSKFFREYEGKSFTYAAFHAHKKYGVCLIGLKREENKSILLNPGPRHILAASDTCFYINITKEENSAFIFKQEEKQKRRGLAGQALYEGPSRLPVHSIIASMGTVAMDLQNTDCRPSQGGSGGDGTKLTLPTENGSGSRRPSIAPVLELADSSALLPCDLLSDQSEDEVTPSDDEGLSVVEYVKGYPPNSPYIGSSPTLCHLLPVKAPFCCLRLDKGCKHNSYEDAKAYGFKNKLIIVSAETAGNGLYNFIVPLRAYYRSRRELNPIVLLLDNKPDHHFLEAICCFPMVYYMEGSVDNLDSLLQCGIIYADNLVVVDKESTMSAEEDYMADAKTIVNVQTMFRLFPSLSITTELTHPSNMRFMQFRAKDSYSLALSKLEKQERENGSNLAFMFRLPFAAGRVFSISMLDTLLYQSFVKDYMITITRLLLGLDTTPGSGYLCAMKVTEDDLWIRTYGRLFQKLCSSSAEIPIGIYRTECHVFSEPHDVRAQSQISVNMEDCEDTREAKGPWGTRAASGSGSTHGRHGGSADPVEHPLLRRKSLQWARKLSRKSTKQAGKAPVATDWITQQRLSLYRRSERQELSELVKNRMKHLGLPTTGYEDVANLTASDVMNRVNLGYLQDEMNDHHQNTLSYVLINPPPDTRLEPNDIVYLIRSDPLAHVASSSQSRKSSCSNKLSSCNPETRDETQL
The experiment in a line: Whole-cell APC in CHO-K1 cells stably expressing mouse WT SLACK. It is filed as cell-based. To be noted: for IC50: APC, CHO-K1 cells; for Imax: maximum inhibition at 30 µM standardized to VU0606170 (set at 100%). The protocol:
Finally, we chose to screen the same two compounds versus mouse SLACK and two clinically relevant GOF SLACK mutants in APC assays utilizing CHO-K1 cells stably expressing these targets (Table 7). Screening versus the mouse homolog was deemed important for evaluating the potential of the series to ultimately lead to a useful in vivo tool via further optimization.
Automated patch clamp recording was performed with a SyncroPatch 768 PE system (Nanion, Munich, Germany) as previously described. Whole-cell recordings were performed at room temperature. Cells were harvested by first washing with PBS without Mg^2+ or Ca^2+ (Gibco, Billings, MT, USA) to remove cell culture medium, followed by dissociation with TryPLE (Gibco, Billings, MT, USA). Cells were then resuspended and diluted to 200,000 cells/mL in external solution. External solution contained 105 mM NaCl, 4 mM KCl, 1 mM MgCl2, 5 mM CaCl2, 10 mM HEPES, 40 mM N-Methyl-D-glucamine chloride, titrated to pH 7.4 with NaOH and osmolarity of 300 mOsm/kg; internal solution contained 70 mM NaCl, 70 mM KF, 10 mM KCl, 5 mM EGTA, 5mM HEPES, titrated to a pH 7.2 with KOH and osmolarity of 295 mOsm/kg.
The APC protocol was set as following: Cells were held at […] −80 mV for 100 ms, then a ramp protocol was performed from −100 mV to 80 mV at 0.4 mV/ms, hold the cell at −80 mV for another 100 ms, then steps were performed at −20 mV, 0 mV, +20 mV, +40 mV, and +60 mV for 100 ms of each step. Whole-cell currents were measured at 0 mV and normalized to current after external buffer addition.

The molecule `CC(C)(Oc1ccc(Cl)cc1)C(=O)Nc1cnc(Oc2c(F)cccc2F)nc1` [Analog 40] had an IC50 of 320 nM and an Imax of 100%.

Regarding `CN(c1ccc(C#N)cc1)c1ncc(NC(=O)C(C)(C)Oc2ccc(Cl)cc2)cn1` [Analog 66], the IC50 is 790 nM and the Imax is listed as 91%.

A word on the IC50: it is the point on the concentration scale where inhibition reaches its midpoint. A lower IC50 goes with greater potency in that assay.
